Test results from patent publication US6172087A, “N-oxide of heterocyclic ester, amide, thioester, or ketone hair growth compositions and uses” (GPI NIL Holding, Inc., priority 1998, dated 2001).
Entries after “also recorded” stand apart in the source; their conditions may differ.

Columns and labels:
[1] = cited from earlier work
C57 black 6 mice = assay: In Vivo Hair Generation Test With C57 Black 6 Mice, Experiment A; conditions: 30 μM, topical, every 48 hours (3 applications), after 6 weeks
Excerpt: Care was taken not to nick or cause abrasion to the underlaying dermal layers. The animals were in anagen growth phase, as indicated by the pinkish color of the skin. […] Hair growth was quantitated by the percent of shaved area covered by new hair growth during this time period.

| SMILES | hair growth on topical, but not oral, application (in words) [1] | hair regrowth in the shaved area (in words) (C57 black 6 mice) |
| --- | --- | --- |
| C=CC[C@@H]1/C=C(\C)C[C@H](C)C[C@H](OC)[C@H]2O[C@@](O)(C(=O)C(=O)N3CCCC[C@H]3C(=O)O[C@H](/C(C)=C/[C@@H]3CC[C@@H](O)[C@H](OC)C3)[C@H](C)[C@@H](O)CC1=O)[C@H](C)C[C@@H]2OC [FK506] | stimulates hair growth in a dose-dependent manner |  |
| CCC(C)(C)C(=O)C(=O)N1CCC[C@H]1C(=O)OCCCc1cccnc1 [GPI 1046, 3-(3-pyridyl)-1-propyl(2s)-1-(3,3-dimethyl-1,2-dioxopentyl)-2-pyrrolidinecarboxylate] |  | essentially complete hair regrowth and their shaved areas were indistinguishable from unshaven C57 black 6 mice; also recorded: essentially, complete hair regrowth in the shaved area |
